SMILES strings stand for the structures.

The nature of data set [1]: Beagle test of sustained release capsules (oral) versus intravenous administration. Type of data set: in vivo. Particulars: beagles, orally administrated sustained release capsule. As to the method: The blood samples were collected separately at 0.25, 0.5, 1, 2, 4, 6, 8, 12, 16 and 24 hours after drug administration.
The subject of a further data set is human liver cells S9. The data set is described as follows: Metabolism in human liver cells S9 to form the active component compound III. Type of data set: in vitro ADME. The settings on record: conversion to compound III, human liver S9, 1 mM NADPH, 37° C. An excerpt:
Then the mixture was quenched with concentrated perchloric acid. After the precipitated proteins was removed by centrifuge, the supernatant was adjusted with concentrated potassium phosphate until pH was 3, and centrifuged again. The supernatant was directly injected into HPLC and analyzed.

As to `COc1ccc(C(=O)Oc2ccc(C(CN(C)C)C3(O)CCCCC3)cc2)cc1.O=C(O)CCC(=O)O` (centres unmarked) [4-[2-dimethylamino-1-(1-hydroxycyclohexyl)-ethyl]phenyl 4-methoxybenzoate succinate], in data set [1], the “conversion into compound III in vivo” value is “quickly converted”.

With `CN(C)CC(c1ccc(OC(=O)c2ccccc2)cc1)C1(O)CCCCC1.Cl` (centres unmarked) [4-[2-dimethylamino-1-(1-hydroxycyclohexyl)-ethyl]phenyl benzoate hydrochloride], the “conversion into compound III in vivo” value in data set [1] was “quickly converted”.

Turning to `CN(C)CC(c1ccc(OC(=O)c2ccccc2)cc1)C1(O)CCCCC1` (centres unmarked) [Compound 2 of Example 1, 4-[2-dimethylamino-1-(1-hydroxycyclohexyl)-ethyl]phenyl Benzoate], the “Metabolic rate (%) of compounds in liver cells within 2 hours” value (“Metabolic rate (%) of compounds” below) in the data set on human liver cells S9 came to 96%. As to `COc1ccc(C(=O)Oc2ccc(C(CN(C)C)C3(O)CCCCC3)cc2)cc1` (centres unmarked) [Compound 3 of Example 1, 4-[2-dimethylamino-1-(1-hydroxycyclohexyl)-ethyl]phenyl 4-methoxybenzoate], in the data set with human liver cells S9, the “Metabolic rate (%) of compounds” value turned out to be 92%. With `CN(C)CC(c1ccc(OC(=O)c2ccc(F)cc2)cc1)C1(O)CCCCC1` (centres unmarked) [Compound 4 of Example 1, 4-[2-dimethylamino-1-(1-hydroxycyclohexyl)-ethyl]phenyl 4-fluorobenzoate], the “Metabolic rate (%) of compounds” value in the data set on human liver cells S9 is recorded as 88%.

Values taken from patent publication US8178724B2, “Compounds for inhibition of 5-hydroxytryptamine and norepinephrine reuptake or for treatment of depression disorders, their preparation processes and uses thereof” (Shandong Luye Pharmaceutical Co., Ltd., priority 2005, dated 2012).
